The text below walks through data of US11485762B2, “Compositions and methods for inhibition of L-plastin activity in osteoclasts to reduce bone loss” (University of Maryland, Baltimore, priority 2017, dated 2022).

The subject of assay [1] is endogenous LPL. The assay is described as follows: Phosphorylation of endogenous (cellular) LPL in osteoclasts (LPL immunoprecipitation, p-Serine immunoblot). Format: cell-based, mouse. The settings on record: sNT-LPL peptides, 3-4 hours, bone particles and TNF-α. As to the method:
Bone particles (60-80 μm in size) were prepared as described previously (Ma et at, 2010, J. Biol. Chem., 285: 29911-29924). After flushing the marrow cells for osteoclast differentiation as described above, long bones of mice (free of cells inside and muscles outside) were washed extensively with PBS and kept in ethanol until use. Long bones were air-dried in the hood and homogenized by a mini blender. Bone particles were sieved and used for experiments. Multinucleated osteoclasts were seen from day four onward. At this time cultures were added with bone particles (100 μg/ml media) for 3-4 hours or 12-14 hours in the presence of TNF-α (20 ng/ml). Some cultures were treated with 3-5 μg/ml TNFR1 antibody. Osteoclasts were preincubated with the TNFR1 antibody for 60-90 minutes before the addition of TNF-α to enhance the blocking effect. Osteoclasts incubated with bone particles for 3-4 or 12-14 hours in the presence of TNF-α were used for lysate preparations.
The vector pTAT-HA has an N-terminal 6-histidine leader (Nagahara et al., 1998, Nature Medicine, 4:1449-1452). […] For transduction with TAT-fused peptides (100-150 nM), osteoclasts were first kept in serum-free α-MEM for two hours. Afterward, TAT proteins of interest, bone particles, and TNF-α were added to cells in serum-free α-MEM Lysates were made from these cells for immunoprecipitation and immunoblotting analyses. Osteoclasts plated on dentine slices in the presence of TAT-proteins of interest and TNF-α for 3-6 hours or 12-14 hours were used for immunostaining or actin staining analyses. Osteoclast cultures treated only with TNF-α were used as controls.
Following various treatments, osteoclasts were washed three-times with cold PBS and lysed in a radioimmune precipitation buffer (RIPA; 10 mM Tris-HCl, pH 7.2, 150 mM NaCl, 1% deoxycholate, 1% Triton X-100, 0.1% SDS, 1% aprotinin, 2 mM PMSF, […], and 1% aprotinin). Cells were rocked on ice for 15 minutes and scraped off with a cell scraper. Cell lysates were centrifuged at 15,000 rpm for 5 minutes at 4° C., and the supernatant was saved. Protein contents were measured using Bio-Rad protein assay reagent. Equal amounts of lysate proteins (100-150 μg) were used for immunoprecipitations. Immunoprecipitations and Western blotting were done as described previously (Chellaiah et al., 1998, J. Biol. Chem., 273: 11908-11916; Chellaiah et al., 1996, Mol. Biol. Cell, 7: 743-753).
After cells were kept in the serum-free α-MEM medium for two hours, LPL peptides of interest were added to a final concentration of 100-150 nM to cells in serum-free media (Chellaiah et al, 2000, J. Biol. Chem., 275: 11993-12002). Osteoclasts transduced with peptides of interest and added with bone particles in the presence of TNF-α for 3-4 hours or 12-14 hours were used for lysate preparations. Cells plated on coverslips and treated with peptides were used for actin staining to detect podosomes. After transduction for 30 min., osteoclasts were re-plated on dentine slices with respective LPL peptide and TNF-α for 3-6 hours or 12-14 hours. These cells were used for Actin staining with rhodamine-phalloidin or immunostaining analyses (Chellaiah et al., 2000, J. Biol. Chem., 275: 11993-12002; Chellaiah et al., 2000, J. Cell. Biol., 148: 665-678; Chellaiah et al., 2003, J Biol Chem 278: 29086-29097).
Following various treatments, osteoclasts were washed three times with cold PBS and lysed in a Triton-containing lysis buffer as described (Chellaiah et al., 1996, Mol. Biol. Cell, 7: 743-753). Cells were rocked on ice for 15 minutes, and scraped off with a cell scraper. Cell lysates were centrifuged at 15,000 rpm for 5 minutes, at 4° C., and the supernatant was saved. Protein contents were measured using Bio-Rad protein assay reagent. Osteoclast cultures were also subjected to a trypan blue dye (Sigma T8154) exclusion test to determine the viability of osteoclasts after various treatments. […]

The test system of assay [2] is osteoclasts. The assay is described as follows: F-actin content by rhodamine phalloidin binding. Format: cell-based, mouse. The settings on record: sNT-LPL peptides; compared with P2, P5, and P6. As to the method: For the measurement of F-actin, osteoclasts transduced with TAT-LPL peptides of interest for 15 to 30 minutes were re-plated on dentine slices for 3 to 4 hours or 10-12 hours, respectively, in the presence of indicated TAT-fused peptides of interest and TNF-α. For each treatment four to six wells in 24 well, culture dishes were used. Cells were fixed and rhodamine phalloidin binding to F-actin was done as described (Chellaiah et al., 2000, J. Cell Biol., 148: 665-678; Chellaiah et al., 2000, J. Biol. Chem., 275: 11993-12002: Chellaiah et at, 2007, J. Biol. Chem., 282: 10104-10116),
Osteoclasts were transduced with LPL and control peptides. For each treatment four to six wells in 24 well culture dishes were used. Cells were fixed and rhodamine phalloidin binding to F-actin was done as described (Chellaiah et al., 1998, J. Biol. Chem., 273: 11908-11916; Chellaiah et al., 1996, Mol. Biol. Cell, 7: 743-753).

Turning to “MARGAVSDEE [Peptide P3, TAT-fused sNT-LPL peptide, Ser-5 substituted with Ala (A5S7)]”, the “inhibitory effect on the phosphorylation of cellular LPL” value in assay [1] is given as “varied inhibitory effects”. Further, the F-actin level entry in assay [2] is on record as “decreased”.
For “MARGSVADEE [Peptide P4, TAT-fused sNT-LPL peptide, Ser-7 substituted with Ala (S5A7)]” the same measures were “varied inhibitory effects” and “decreased”.
